Paper PMC11831592, “Repurposing Linezolid in Conjunction with Histone Deacetylase Inhibitor Access in the Realm of Glioblastoma Therapies” (Journal of Medicinal Chemistry, 2025)

Tests used:
PT#3-R = test: CCK8 cell proliferation assay, PT#3-R; type: cell-based; settings: Homo sapiens, CCK8, 72 h
Protocol: (§1) Cell viability and drug cytotoxicity were determined by a CCK-8 kit (Cell Counting Kit-8, CK04-13, MD, USA) (CCK8, C0005, Target Molecule Corp., MA, USA) reagent. Cells were seeded 2 × 10^3 per well in the 96-well plate for 24 h, followed by treating at different concentrations of compounds for 72 h. Before the experiment, CCK8 was 10-fold diluted with the culture medium and then incubated with cells for 30 min. Finally, the OD was 450 nm absorbance and calculated for cell viability.

PT#3 = test: CCK8 cell proliferation assay, PT#3; type: cell-based; settings: Homo sapiens; PT#3, CCK8, 72 h
Protocol: as §1

[1] = system: A172-R TMZ-resistant GBM cell line; test: MTT cytotoxicity assay, A172-R; type: cell-based; settings: Homo sapiens, 72 h
Protocol: (§2) We utilized linezolid as the structural foundation to confirm the cytotoxicity of linezolid-conjugated functional domains against glioblastoma (GBM). We combined it with the binding structures of anti-histone deacetylases (HDACs) (denoted as compounds 1–5 and 11–14), antitubulin (compound 6), anticyclooxygenase (COX) (compound 7), and anti-heat shock protein 90 (Hsp90) (compounds 8–10). These constructs were then administered to TMZ-resistant GBM cell lines A172R and PT#3R at concentrations ranging from 0 to 80 μM over 72 h. The cytotoxic effects of these compounds were assessed using the MTT assay (Table 1 and Supporting Information IV). […] Given the remarkable cytotoxicity of compound 1 on both A172-R and PT#3-R TMZ-resistant cells, this study subsequently focused on compound 1 for further in-depth investigation and mechanistic exploration. To validate that the cytotoxic effect of compound 1 on GBM is not attributed to linezolid alone, we separately treated the TMZ-resistant GBM cell line PT#3-R with compound 1 and linezolid. […] This confirms that the cytotoxicity of compound 1 against GBM is primarily attributable to the inhibitory structure of linezolid-conjugated HDAC (Figure 2A). Furthermore, we compared the cytotoxic effects of compound 1 on various wild-type brain tumor cell lines, including U87MG, PT#3, LN229 GBM cells, and CT-2A mouse astrocyte cell line as well as TMZ-resistant variants cell lines, including U87MG-R, PT#3-R, CT-2A-R, and T98G (MGMT-positive). […] Additionally, we further confirmed the efficacy of compound 1 in GBM treatment.
MTT assay was employed to evaluate the cytotoxicity of the synthesized compound against resistant GBM cells. The MTT (3-(4,5-dimethylthiazol-2-yl)-2,5-diphenyltetrazolium bromide, catalog no. AM0818-0005) powder was purchased from BIONOVAS (Ontario, Canada). The MTT was prepared at 10 mg/mL stock with ultrapure water and then stored at −20 °C. All cells were seeded 2.5 × 10^4 per well in the 24-well plate for 24 h, followed by treating at different concentrations of compounds for 72 h. Before the experiment, the MTT stock was 10-fold diluted with the culture medium and then incubated with cells for 30 min. After the incubation, the MTT medium was discarded and added 300 μL of dimethyl sulfoxide (DMSO, cat. no. D2650, Sigma-Aldrich, MO, USA) to dissolve the cells. Finally, 100 μL of the mixture was transferred to measure the OD 595 nm absorbance.

U87MG = test: CCK8 cell proliferation assay, U87MG; type: cell-based; settings: Homo sapiens, U-87 MG, CCK8, 72 h
Protocol: as §1

[2] = system: DNA HR repair in U87MG cells; test: Homologous recombination repair assay; type: cell-based, human; settings: increasing drug concentrations
Protocol: For the DNA, HR repair assay continued to use our previous study.[30] U87MG cells were cotransfected at a 2:1 ratio using the […] reporter and DsRed-Monomer plasmids. Cells were harvested 2 days after transfection and subjected to flow cytometry analysis by a Guava EasyCyte System. Only DsRed-positive cells were analyzed for HR and NHEJ efficiencies to circumvent possible differences in transfection efficiencies. Data were analyzed to reveal the percentage of GFP-positive cells relative to those of DsRed-positive cells. Data were set to 1% of the background level of GFP-positive cells in every internal control.

HDAC2 = target: T1, HDAC2 (Homo sapiens, UniProt Q92769); test: HDAC enzyme inhibition assay, HDAC2; type: biochemical; settings: 10-dose, 3-fold serial dilution starting at 10 μM
T1 construct: purchased Reaction Biology Corporation, Malvern, PA (contract assay service)
Protocol: (§3) Enzyme inhibition assays were performed by the Reaction Biology Corporation, Malvern, PA (http://www.reactionbiology.com).

[3] = system: TMZ-resistant GBM cell lines A172R and PT#3R; test: MTT cytotoxicity assay, TMZ-resistant GBM lines (statement in words); type: cell-based; settings: 0 to 80 μM, 72 h
Protocol: as §2
MTT assay was employed to evaluate the cytotoxicity of the synthesized compound against resistant GBM cells. The MTT (3-(4,5-dimethylthiazol-2-yl)-2,5-diphenyltetrazolium bromide, catalog no. AM0818-0005) powder was purchased from BIONOVAS (Ontario, Canada). The MTT was prepared at 10 mg/mL stock with ultrapure water and then stored at −20 °C. […] Finally, 100 μL of the mixture was transferred to measure the OD 595 nm absorbance.

HDAC1 = target: T2, HDAC1 (Homo sapiens, UniProt Q13547); test: HDAC enzyme inhibition assay, HDAC1; type: biochemical; settings: 10-dose, 3-fold serial dilution starting at 10 μM
T2 construct: purchased Reaction Biology Corporation, Malvern, PA (contract assay service)
Protocol: as §3

Primary Mouse Neuron = test: CCK8 assay, primary culture neurons; type: cell-based
Protocol: The human glioblastoma cell lines U87MG (HTB-14), T98G (CRL-1690), and A172 (CRL-1620) were provided by the American Type Culture Collection (Manassas, VA, USA). The patient-derived cell line PT#3 was purified under the approval of the Institutional Review Board of Taipei Medical University (TMU) (No. 201006011). The murine astrocytoma cell line CT-2A (SCC194) was purchased from Merch Millipore (MA, USA). TMZ-resistant cell lines were established as described previously.[40] All cell lines were cultured in Dulbecco’s modified Eagle’s medium basal medium (Cat# 10-013-CM, CORNING, MA, USA), supplemented with 10% fetal bovine serum (Cat# 12676029, Thermo Fisher Scientific, MA, USA), 100 units/mL penicillin, and 100 μg/mL streptomycin (Cat# 15140122, Thermo Fisher Scientific) at 37 °C in the environment of 95% air and 5% carbon dioxide and maintained resistant characteristic with […] of TMZ (Cat# HY-17364, MedChemExpress, NJ, USA). Primary cultured astrocytes and neurons were derived from E17 embryonic mice. […]
Cell viability and drug cytotoxicity were determined by a CCK-8 kit (Cell Counting Kit-8, CK04-13, MD, USA) (CCK8, C0005, Target Molecule Corp., MA, USA) reagent. […] Finally, the OD was 450 nm absorbance and calculated for cell viability.

PT#3-R GBM cells = test: Orthotopic PT#3-R transplant model, survival and HE staining; type: in vivo, mouse
Protocol: For orthotopic inoculation, CT-2A cells (1 × 10^5) or CT-2A-R (2 × 10^5) were suspended in 4 μL of DMEM and implanted into the brain of B6 mice. PT#3-R cells (5 × 10^5) were suspended in 4 μL of DMEM and implanted into the brain of SCID mice. After cell implantation, mice were monitored daily for survival, and their body weight was measured every 3 days starting from the seventh day. […] […] […] Upon the natural death of the mice, brains were extracted and entrusted to BioTools for sectioning and HE staining.

T2 sequence (Q13547 whole entry): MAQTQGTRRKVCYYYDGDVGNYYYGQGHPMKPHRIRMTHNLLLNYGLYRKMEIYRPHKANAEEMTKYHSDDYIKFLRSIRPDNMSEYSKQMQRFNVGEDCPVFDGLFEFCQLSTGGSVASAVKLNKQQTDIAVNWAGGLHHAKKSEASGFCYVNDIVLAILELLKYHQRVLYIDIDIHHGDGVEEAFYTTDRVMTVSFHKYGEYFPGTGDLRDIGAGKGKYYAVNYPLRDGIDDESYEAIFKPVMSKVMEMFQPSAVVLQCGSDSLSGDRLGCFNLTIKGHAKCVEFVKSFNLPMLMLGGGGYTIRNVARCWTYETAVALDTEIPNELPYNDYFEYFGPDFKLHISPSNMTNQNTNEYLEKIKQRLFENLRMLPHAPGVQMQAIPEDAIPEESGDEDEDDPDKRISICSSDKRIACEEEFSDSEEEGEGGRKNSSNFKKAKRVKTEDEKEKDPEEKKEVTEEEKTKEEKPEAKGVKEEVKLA
T1 sequence (Q92769 whole entry): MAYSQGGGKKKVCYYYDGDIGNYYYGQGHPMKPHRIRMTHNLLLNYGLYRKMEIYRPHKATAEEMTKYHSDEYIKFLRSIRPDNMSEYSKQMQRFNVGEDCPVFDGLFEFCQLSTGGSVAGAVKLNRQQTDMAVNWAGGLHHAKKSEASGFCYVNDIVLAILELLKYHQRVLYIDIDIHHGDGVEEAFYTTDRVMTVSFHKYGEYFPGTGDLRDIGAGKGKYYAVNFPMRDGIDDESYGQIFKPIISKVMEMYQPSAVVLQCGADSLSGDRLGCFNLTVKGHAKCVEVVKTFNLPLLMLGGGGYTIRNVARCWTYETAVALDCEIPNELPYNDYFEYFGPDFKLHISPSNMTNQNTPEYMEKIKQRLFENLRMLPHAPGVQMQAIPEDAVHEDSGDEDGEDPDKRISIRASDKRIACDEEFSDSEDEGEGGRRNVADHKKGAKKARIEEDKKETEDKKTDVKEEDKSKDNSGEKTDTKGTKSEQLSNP

## O=C(/C=C/c1ccc(CNC[C@H]2CN(c3ccc(N4CCOCC4)c(F)c3)C(=O)O2)cc1)NO [compound 1, (S,E)-3-(4-((((3-(3-Fluoro-4-morpholinophenyl)-2-oxooxazolidin-5-yl)methyl)ami-no)methyl)phenyl)-N-hydroxyacrylamide]
PT#3-R
  IC50: 11.1 ± 0.57 µM
PT#3
  IC50: 10.3 ± 0.52 µM
[1]
  IC50: 17.4 ± 1.21 µM
U87MG
  IC50: 13.5 ± 0.54 µM
[2]
  DNA HR repair capability: substantial decrease in DNA HR repair capability
HDAC2
  IC50: 2.81 µM
[3]
  cytotoxicity in TMZ-resistant GBM: exhibited the capacity to induce cytotoxicity
HDAC1
  IC50: 1.09 µM
Primary Mouse Neuron
  IC50: 65.9 ± 4 µM
PT#3-R GBM cells; PT#3-R in SCID mice, 10 or 20 mg/kg with 10 mg/kg TMZ, intraperitoneal every 3 days from day 7
  survival (Kaplan-Meier): extend the survival rate
PT#3-R GBM cells; PT#3-R, post-mortem brain tissue sections
  TMZ-resistant GBM cell growth in the brain (HE staining): effective inhibition of TMZ-resistant GBM cell growth in the brain
